Measured values taken from patent US20220031668A1, “METHODS OF INHIBITING PROCOLLAGEN-LYSINE, 2-OXOGLUTARATE 5-DIOXYGENASE 2” (University of Kentucky Research Foundation, priority 2020, published 2022).

Each compound was assayed on MDA-MB-231 cells (assay: 3D culture assay of cancer cell invasion). Settings: 10 μM.
Format: cell-based, human
Method: 3D culture assay is an established platform to study cancer cell invasion, and the ability of compounds to attenuate such cell invasion (Zhang 2015). […] The MDA-MB-231 cell line is an epithelial, human breast cancer cell line.
Briefly, to conduct the 3D culture assay, 12-well plates were coated with […], matrigel per well. After incubating the plates at 37° C. for 15 minutes, MDA-MB-231 cells were plated with about 300 cells per well. The plates were allowed to stand for 45 min in the 37° C. incubator to let the cells deposit into the matrigel. The cells were then covered with 10% matrigel, which contained test compounds. […]

Row | Structure (SMILES) | invasive growth of MDA-MB-231 cells in 3D culture
1 | CN(C)C(=O)C(CCN1CCC(O)(c2ccc(Cl)cc2)CC1)(c1ccccc1)c1ccccc1 [Loperamide] | inhibits invasive growth

Same assay, conditions: 20 μM, 3D culture for 3 days

Row | Structure (SMILES) | inhibitory activity on breast cancer progression (invasive growth) in 3D culture
2 | O=C(O)c1cc(O)c(O)c(O)c1 [Gallic acid] | inhibitory activity
3 | C[N+](C)(C)CC(O)CC(=O)O (racemic) [DL-Carnitine] | inhibitory activity
4 | CN1CCCC(n2nc(Cc3ccc(Cl)cc3)c3ccccc3c2=O)CC1 (stereo not drawn) [Azelastine] | inhibitory activity
5 | N=C(N)NC(=O)c1nc(Cl)c(N)nc1N [Amiloride] | inhibitory activity
6 | C[N+](C)(C)C[C@H](O)CC(=O)[O-] [L-Carnitine] | inhibitory activity
